# Assay results: US20020019527A1 (priority 2000, published 2002)
# Structures can show the parent of a compound that is named as a salt.
# Biological target: T1, Farnesyltransferase (FTase) (Bos taurus, UniProt P29702+P49355)
# T1 construct: precipitation from a beef brain homogenate; from tissue; host or cells: bovine brain
# Test: Farnesyltransferase inhibition (scintillation proximity assay, [3H]-FPP / biotin-K-ras peptide)
# Format: biochemical, bovine
# Settings: not given
# Summary of the method: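 Read-out: [3H]-FPP prenylation of a biotinylated K-ras peptide by SPA, measured 1 h after quenching. Enzyme: FTase purified from bovine brain (ammonium sulfate cut, DEAE Sepharose), free of GGTase I and II. Test compounds in ethanol, diluted 10-fold into the reaction.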
# T1 sequence (P49355 whole entry, one chain of several): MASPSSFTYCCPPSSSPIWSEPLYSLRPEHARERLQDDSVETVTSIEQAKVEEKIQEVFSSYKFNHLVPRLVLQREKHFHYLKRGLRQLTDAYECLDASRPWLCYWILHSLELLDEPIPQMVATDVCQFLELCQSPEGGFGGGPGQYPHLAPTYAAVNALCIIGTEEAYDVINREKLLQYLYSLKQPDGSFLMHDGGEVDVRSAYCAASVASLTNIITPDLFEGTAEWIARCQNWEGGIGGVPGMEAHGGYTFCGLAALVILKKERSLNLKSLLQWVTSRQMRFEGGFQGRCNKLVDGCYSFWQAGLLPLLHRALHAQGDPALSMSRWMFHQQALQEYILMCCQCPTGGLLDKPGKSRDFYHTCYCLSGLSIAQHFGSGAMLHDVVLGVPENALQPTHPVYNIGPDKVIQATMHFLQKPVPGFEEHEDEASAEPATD
row,Compound,% Inhibition at 10^−6M
1,Cc1ccccc1COC(c1ccc(C#N)c(-c2ccccc2C)c1)c1cncn1C.Cl (centres unmarked) [Example 135],94%
2,Cc1ccccc1-c1cc(C(OCc2ccc(C(F)(F)F)cc2)c2cncn2C)ccc1C#N.Cl (centres unmarked) [Example 139],97%
3,Cc1ccccc1-c1cc(C(OCc2ccccc2[N+](=O)[O-])c2cncn2C)ccc1C#N.Cl (centres unmarked) [Example 142],94%
4,Cc1ccccc1-c1cc(C(OCc2cccc(OC(F)(F)F)c2)c2cncn2C)ccc1C#N.Cl (centres unmarked) [Example 143],97%
5,COc1cc(COC(c2ccc(C#N)c(-c3ccccc3C)c2)c2cncn2C)cc(OC)c1OC.Cl (centres unmarked) [Example 148],95%
6,Cc1ccccc1-c1cc(C(OCc2cccc3cccnc23)c2cncn2C)ccc1C#N.Cl (centres unmarked) [Example 149],93%
7,Cc1ccccc1-c1cc(C(OCc2ccc(S(C)(=O)=O)cc2)c2cncn2C)ccc1C#N.Cl (centres unmarked) [Example 151],94%
8,Cc1ccccc1-c1cc(C(OCc2cc([N+](=O)[O-])cc3c2OCOC3)c2cncn2C)ccc1C#N.Cl (centres unmarked) [Example 168],96%

# Same assay, conditions: compound at 10^−6 M; bovine FTase, 37° C., 30 minutes
row,Compound,inhibition at 1 µM
1,"COC(=O)c1ccc(COC(c2ccc(C#N)c(-c3ccccc3C)c2)c2cncn2C)cc1 (centres unmarked) [Example 130, methyl 4-(((6-cyano-2′-methyl(1,1′-biphenyl)-3-yl)(1-methyl-1H-imidazol-5-yl)methoxy)methyl)benzoate hydrochloride]",97%
2,"Cc1ccccc1-c1cc(C(OCc2ccccc2Cl)c2cncn2C)ccc1C#N (centres unmarked) [Example 132, 5-(((2-chlorobenzyl)oxy)(1-methyl-1H-imidazol-5-yl)methyl)-2′-methyl(1,1′-biphenyl)-2-carbonitrile hydrochloride]",94%
3,"Cc1ccccc1-c1cc(C(OCc2ccc(Cl)cc2)c2cncn2C)ccc1C#N (centres unmarked) [Example 133, 5-(((4-chlorobenzyl)oxy)(1-methyl-1H-imidazol-5-yl)methyl)-2′-methyl(1,1′-biphenyl)-2-carbonitrile hydrochloride]",97%
4,"Cc1cc(C)cc(COC(c2ccc(C#N)c(-c3ccccc3C)c2)c2cncn2C)c1 (centres unmarked) [Example 140, 5-(((3,5-dimethylbenzyl)oxy)(1-methyl-1H-imidazol-5-yl)methyl)-2′-methyl(1,1′-biphenyl)-2-carbonitrile hydrochloride]",94%
5,"Cc1ccccc1-c1cc(C(OCc2ccc(F)cc2C(F)(F)F)c2cncn2C)ccc1C#N (centres unmarked) [Example 141, 5-(((4-fluoro-2-(trifluoromethyl)benzyl)oxy)(1-methyl-1H-imidazol-5-yl)methyl)-2′-methyl(1,1′-biphenyl)-2-carbonitrile hydrochloride]",95%
6,"Cc1cc(COC(c2ccc(C#N)c(-c3ccccc3C)c2)c2cncn2C)c(C#N)cc1C#N (centres unmarked) [Example 144, 4-(((6-cyano-2′-methyl(1,1′-biphenyl)-3-yl)(1-methyl-1H-imidazol-5-yl)methoxy)methyl)-6-methylisophthalonitrile hydrochloride]",96%
7,"Cc1ccccc1-c1cc(C(OCc2ccc(F)c(F)c2)c2cncn2C)ccc1C#N (centres unmarked) [Example 147, 5-(((3,4-difluorobenzyl)oxy)(1-methyl-1H-imidazol-5-yl)methyl)-2′-methyl(1,1′-biphenyl)-2-carbonitrile hydrochloride]",96%
8,"COc1cc(COC(c2ccc(C#N)c(-c3ccccc3C)c2)c2cncn2C)cc(OC)c1 (centres unmarked) [Example 150, 5-(((3,5-dimethoxybenzyl)oxy)(1-methyl-1H-imidazol-5-yl)methyl)-2′-methyl(1,1′-biphenyl)-2-carbonitrile hydrochloride]",93%
9,"Cc1ccccc1-c1cc(C(OCc2cc3c(cc2Cl)OCO3)c2cncn2C)ccc1C#N (centres unmarked) [Example 152, 5-(((6-chloro-1,3-benzodioxol-5-yl)methoxy)(1-methyl-1H-imidazol-5-yl)methyl)-2′-methyl(1,1′-biphenyl)-2-carbonitrile hydrochloride]",89%
10,"Cc1ccccc1-c1cc(C(OCc2ccc(C(C)C)cc2)c2cncn2C)ccc1C#N (centres unmarked) [Example 153, 5-(((4-isopropylbenzyl)oxy)(1-methyl-1H-imidazol-5-yl)methyl)-2′-methyl(1,1′-biphenyl)-2-carbonitrile hydrochloride]",92%
11,"Cc1ccccc1-c1cc(C(OCc2ccc(OCc3ccccc3)cc2)c2cncn2C)ccc1C#N (centres unmarked) [Example 155, 5-(((4-(benzyloxy)benzyl)oxy)(1-methyl-1H-imidazol-5-yl)methyl)-2′-methyl(1,1′-biphenyl)-2-carbonitrile hydrochloride]",92%
12,"Cc1ccccc1-c1cc(C(OCc2noc(C(C)(C)C)n2)c2cncn2C)ccc1C#N (centres unmarked) [Example 159, 5-(((5-(tert-butyl)-1,2,4-oxadiazol-3-yl)methoxy)(1-methyl-1H-imidazol-5-yl)methyl)-2′-methyl(1,1′-biphenyl)-2-carbonitrile hydrochloride]",91%
13,"Cc1ccccc1-c1cc(C(OCc2ccc(I)cc2)c2cncn2C)ccc1C#N (centres unmarked) [Example 160, 5-(((4-iodobenzyl)oxy)(1-methyl-1H-imidazol-5-yl)methyl)-2′-methyl(1,1′-biphenyl)-2-carbonitrile hydrochloride]",96%
14,"Cc1ccccc1-c1cc(C(OCc2ccc(-c3ccccc3)cc2)c2cncn2C)ccc1C#N (centres unmarked) [Example 161, 5-(((1,1′-biphenyl)-4-ylmethoxy)(1-methyl-1H-imidazol-5-yl)methyl)-2′-methyl(1,1′-biphenyl)-2-carbonitrile hydrochloride]",96%
15,"COc1ccccc1-c1nc(COC(c2ccc(C#N)c(-c3ccccc3C)c2)c2cncn2C)no1 (centres unmarked) [Example 163, 5-(((5-(2-methoxyphenyl)-1,2,4-oxadiazol-3-yl)methoxy)(1-methyl-1H-imidazol-5-yl)methyl)-2′-methyl(1,1-biphenyl)-2-carbonitrile hydrochloride]",84%

# Second part, the compound after the results:
row,inhibition at 1 µM,Compound
1,93%,"COc1cccc(COC(c2ccc(C#N)c(-c3ccccc3C)c2)c2cncn2C)c1 (centres unmarked) [Example 134, 5-(((3-methoxybenzyl)oxy)(1-methyl-1H-imidazol-5-yl)methyl)-2′-methyl(1,1′-biphenyl)-2-carbonitrile hydrochloride]"
2,95%,"Cc1ccccc1-c1cc(C(OCc2cccc(F)c2)c2cncn2C)ccc1C#N (centres unmarked) [Example 136, 5-(((3-fluorobenzyl)oxy)(1-methyl-1H-imidazol-5-yl)methyl)-2′-methyl(1,1′-biphenyl)-2-carbonitrile hydrochloride]"
3,96%,"Cc1ccccc1-c1cc(C(OCc2cc(Cl)nc(Cl)c2)c2cncn2C)ccc1C#N (centres unmarked) [Example 137, 5-(((2,6-dichloro-4-pyridinyl)methoxy)(1-methyl-1H-imidazol-5-yl)methyl)-2′-methyl(1,1′-biphenyl)-2-carbonitrile hydrochloride]"
4,92%,"Cc1ccccc1-c1cc(C(OCc2ccccc2F)c2cncn2C)ccc1C#N (centres unmarked) [Example 138, 5-(((2-fluorobenzyl)oxy)(1-methyl-1H-imidazol-5-yl)methyl)-2′-methyl(1,1′-biphenyl)-2-carbonitrile hydrochloride]"
5,97%,"Cc1ccccc1-c1cc(C(OCc2ccc(-c3ccccc3C#N)cc2)c2cncn2C)ccc1C#N (centres unmarked) [Example 145, 5-(((2′-cyano(1,1′-biphenyl)-4-yl)methoxy)(1-methyl-1H-imidazol-5-yl)methyl)-2′-methyl(1,1′-biphenyl)-2-carbonitrile hydrochloride]"
6,93%,"COC(=O)c1cccc(COC(c2ccc(C#N)c(-c3ccccc3C)c2)c2cncn2C)c1 (centres unmarked) [Example 146, methyl 3-(((6-cyano-2′-methyl(1,1′-biphenyl)-3-yl)(1-methyl-1H-imidazol-5-yl)methoxy)methyl)benzoate hydrochloride]"
7,95%,"Cc1ccc(COC(c2ccc(C#N)c(-c3ccccc3C)c2)c2cncn2C)cc1C (centres unmarked) [Example 154, 5-(((3,4-dimethylbenzyl)oxy)(1-methyl-1H-imidazol-5-yl)methyl)-2′-methyl(1,1′-biphenyl)-2-carbonitrile hydrochloride]"
8,92%,"Cc1ccccc1-c1cc(C(OCc2cc(F)cc3c2OCOC3)c2cncn2C)ccc1C#N (centres unmarked) [Example 156, 5-(((6-fluoro-4H-1,3-benzodioxin-8-yl)methoxy)(1-methyl-1H-imidazol-5-yl)methyl)-2′-methyl(1,1′-biphenyl)-2-carbonitrile hydrochloride]"
9,97%,"Cc1ccccc1-c1cc(C(OCc2ccc(Cl)cc2Cl)c2cncn2C)ccc1C#N (centres unmarked) [Example 157, 5-(((2,4-dichlorobenzyl)oxy)(1-methyl-1H-imidazol-5-yl)methyl)-2′-methyl(1,1′-biphenyl)-2-carbonitrile hydrochloride]"
10,94%,"Cc1ccccc1-c1cc(C(OCc2csc(-c3ccc(Cl)cc3)n2)c2cncn2C)ccc1C#N (centres unmarked) [Example 162, 5-(((2-(4-chlorophenyl)-1,3-thiazol-4-yl)methoxy)(1-methyl-1H-imidazol-5-yl)methyl)-2′-methyl(1,1′-biphenyl)-2-carbonitrile hydrochloride]"
11,99%,"Cc1ccccc1-c1cc(C(OCc2ccc(Cl)cc2[N+](=O)[O-])c2cncn2C)ccc1C#N (centres unmarked) [Example 164, 5-(((4-chloro-2-nitrobenzyl)oxy)(1-methyl-1H-imidazol-5-yl)methyl)-2′-methyl(1,1′-biphenyl)-2-carbonitrile hydrochloride]"

# Same assay, conditions: compound at 10^−6 M; bovine FTase, 37° C., 30 minutes; hydrochloride
row,% Inhibition at 10^−6M,Compound
1,95%,"Cc1cc(C)cc(COC(c2ccc(C#N)c(-c3ccccc3C)c2)c2cncn2C)c1.Cl (centres unmarked) [Example 158, 5-(((3,5-dimethylbenzyl)oxy)(1-methyl-1H-imidazol-5-yl)methyl)-2′-methyl(1,1′-biphenyl)-2-carbonitrile hydrochloride]"
